{"source": "patent US8785416B2", "about": "“Sulphated disaccharides for the treatment of neurodegenerative and/or neurovascular diseases” (Bioiberica, S.A., priority 2009, dated 2014)", "key": {"rat hippocampal slices": {"test_system": "rat hippocampal slices", "test": "Oxygen and glucose deprivation (1 hour OGD, 2 hours reoxygenation) in hippocampal slices, LDH release", "assay_type": "cell-based", "experimental": "Male Spague Dawley strain rats (250-325 g) were used. After anaesthesia by means of an intraperitoneal injection of 60 mg/Kg sodium pentobarbital (Euta-Lender®), they were decapitated with a guillotine and the brain was extracted after a craniotomy. The brain was immediately submersed in a dissection solution, a cold (4° C.) modified Krebs-Henseleit solution at pH 7.4, the composition of which is: 120 mM NaCl, 2 mM KCl, 0.5 mM CaCl2, 26 mM NaHCO3, 10 mM MgSO4, 1.18 mM KH2PO4, 11 mM glucose and 200 mM sucrose, bubbled with 95% O2-5% CO2. The hippocampi were isolated, embedded in 2% low melting point agarose (Sigma-Aldrich), and cut into 350 μm transverse slices in a vibratome (Leica VT1000S).\nAfter the cutting in the vibratome, the slices were transferred to a vial with sucrose-free dissection Krebs solution, bubbled with 95% O2-5% CO2 for 60 minutes (equilibrium period). […]\nFor the protocol of 1 hour of OGD followed by 2 hours of reoxygenation, the viability was determined by measuring the release of LDH into the extracellular medium according to the method described in Example 3. The quantification of LDH was performed in samples taken (i) after the preincubation period, (ii) after the hour of OGD and (iii) after each hour of reoxygenation (1 hour and 2 hours)."}, "TNFα": {"test_system": "TNFα", "test": "TNFα production in LPS-activated cerebral cortex astrocytes (RT-PCR)", "assay_type": "cell-based, rat", "conditions": "0.03 μM, simultaneous with 10 μg/mL LPS for 2 hours", "experimental": "Newborn male rats aged 2-3 days were used. After a craniotomy, both cortices were extracted and deposited in a Petri dish with cold PBS. Under a microscope magnifying lens, the meninges of each cortex were extracted. Once clean, they were submersed in cold DMEM and a mechanical dissection was performed with a pipette. Then, the sample was centrifuged at 1,000 rpm for 5 minutes and the supernatant was decanted. The precipitate was resuspended in DMEM with 20% FBS and a mixture of antibiotics (penicillin/streptomycin). Finally, it was passed through a 70 μm filter and seeded in a 75 cm^2 flask with an aerated filter stopper. The calculation for the seeding of the cells was one flask (15 mL of medium) for every newborn used. […]\nSubsequently, the medium of each flask was collected and taken to 50 mL Falcon tubes, they were centrifuged for 5 minutes at 1,000 rpm and the supernatant was decanted. The precipitate was resuspended in DMEM with 10% FBS and antibiotics and the cells were counted for their subsequent seeding.\nThe induction of inflammation in the astrocytes was performed by means of adding 10 μg/mL lipopolysaccharide together with the compounds to be studied (compound Ic at 0.03 μM and chondroitin sulphate at 10 μM) for 2 hours. […] The quantification was performed by the direct measurement of absorbance at 260/280 nm in a Nanodrop® spectrophotometer. […]"}}, "data": [{"substance": "methyl 2-acetamido-2-deoxy-3-O-(β-D-glucopyranosyluronic acid)-4,6-di-O-sulpho-α-D-glucopyranoside, trisodium salt [compound Ic]", "values": [{"measurement": "protective effect against cell death (LDH release)", "setting": "rat hippocampal slices; 1 μM, at 2 hours of reoxygenation after 1 hour OGD", "value": 40, "unit": "%"}, {"measurement": "effect on cell death after one hour of OGD followed by 2 hours of reoxygenation", "setting": "rat hippocampal slices; 1 and 10 μM", "value": "reduced cell death in a concentration-dependent"}, {"measurement": "reduction of the production of TNFα", "setting": "TNFα", "value": 75, "unit": "%"}]}]}
